Results: patent US20220160804A1, “USE OF LAURUS NOBILIS EXTRACT FRACTIONS TO PROTECT AGAINST AIR POLLUTION RELATED DISEASES” (DSM IP Assets B.V., priority 2019, published 2022)

Experiments:
[1] = test system: Nrf2; test: Luciferase reporter assay using H4IIE-ARE8L cells (Nrf2 activation); assay type: cell-based, rat; conditions: R-sulforaphane Conc. Final 4.55 μg/ml as printed, concentrations of fractions not given, DMSO 0.45 % control 2921
Procedure: PloS One. 2012; 7 (5): e36774). […] The media was exchanged every two to three-days. The DMEM assay medium used charcoal treated FBS ([…] transactivation assay was performed in 96 well plates. The plates were seeded with approximately 40,000 cells per well in 100 μ[…] and incubated over night at 37° C. Then the test compounds were diluted in […] and given to the cells as described below. The cells were incubated for at least further 16 h at 37° C. and 5% CO2. Cells were equilibrated to room temperature. Lysis of the cells was done by adding 100 μL lysis solution, Steady-Glo® luciferase buffer according to the manufacturer (Promega) containing 0.5 mM DTT per well and incubated for 10 min at room temperature with gentle shaking. The luminescence was measured within 2 hours after incubation on a luminometer (Mithras, Berthold Technologies). […] We used a rat hepatoma cell line that was stably transfected with a construct that contains eight tandem ARE elements in front of a luciferase reporter gene ([…], et al 2012. PloS One. 2012; 7(5):e36774). All extracts, fractions and pure compounds were tested for concentrations that induce toxicity. Non-toxic concentrations were then selected for treating cells as describes in the methods section.

[2] = test system: IL-6; test: IL-6 secretion of BEAS-2B cells treated with Diesel Particulate Matter; assay type: cell-based, human; conditions: for IL-6 % of PM + DMSO: PM + DMSO = 100
Source text: (§1) The human bronchial epithelial cell line BEAS-2B was from ATCC (American Type Culture Collection, Manassas, Va.) and cultured in Bronchial Epithelial cell Growth Medium (BEGM, Lonza, Wakersville, Md.) in CellBIND® surface plastic flasks (Corning Inc., Corning, N.Y.). The adenocarcinomic human alveolar basal epithelial A549 cell line was obtained from ATCC and cultured in Kaighn's Modification of Ham's F-12 Medium (F-12K medium) (Life Technologies, USA), supplemented with 10% FBS (Sigma, Saint-Louis, Mo.). These cells were cultured at 37° C. in a humidified atmosphere containing 5% CO2.
BEAS-2B cells were seeded in 12-well CellBIND® surface culture plates (Corning Inc.) at 3 to 4×10^5 cells per well. A549 cells were seeded in 12-well plates at 2×10^5 cells per well.
Diesel Particulate Matter (Standard Reference Material SRM 1650b, National Institute of Standards & Technology, NIST, Gaithersburg, Md.) at 80 mg/ml DMSO (100%) were sonicated for 5 min and thereafter diluted 400 fold in medium. This dilution was twofold further diluted for the assay.
After 24 h, cells were treated with the diluted Diesel Particulate Matter at 100 μg/ml and in the presence of different concentrations of Laurus Extracts, other plant extracts, fractions and compounds as indicated. The final DSMO concentrations were 0.175%. Untreated cells or cells treated with 0.175% DMSO were used as controls. After 24 h, cell supernatants were collected. The concentrations of IL-6 and IL-8 in the supernatants were determined by Luminex kits (BIO-RAD Laboratories, Hercules, Calif.) and used in the LiquiChip Workstation IS 200 (Qiagen, Hilden, Germany). The data were evaluated with the LiquiChip Analyser software (Qiagen).
Mean values, standard deviation and p-values with Student's t-test were calculated with Excel. P-values […] 0.05 were considered as indication for significance.

[3] = test system: IL-8; test: IL-8 secretion of A549 cells treated with Diesel Particulate Matter; assay type: cell-based, human; conditions: Table 5, LPS 10 μg/mL
Source text: as §1
(§2) BEAS-2B cells were seeded in 12-well CellBIND® surface culture plates (Corning Inc.) at 3 to 4×10^5 cells per well. A549 cells were seeded in 12-well plates at 2×10^5 cells per well. […]
(§3) After 24 h, cells were treated with the diluted Diesel Particulate Matter at 100 μg/ml and in the presence of different concentrations of Laurus Extracts, other plant extracts, fractions and compounds as indicated. […] The concentrations of IL-6 and IL-8 in the supernatants were determined by Luminex kits (BIO-RAD Laboratories, Hercules, Calif.) and used in the LiquiChip Workstation IS 200 (Qiagen, Hilden, Germany). The data were evaluated with the LiquiChip Analyser software (Qiagen).
(§4) Mean values, standard deviation and p-values with Student's t-test were calculated with Excel. […]

[4] = test system: IL-6; test: IL-6 secretion of A549 cells treated with Diesel Particulate Matter; assay type: cell-based, human; conditions: Table 4, LPS 10 μg/mL
Source text: as §1, §2, §3, §4

Q: How did the “Nrf-2 activity, Average” value [1] turn out when C[S+]([O-])CCCCN=C=S (stereo not shown) [R-Sulforaphane, R-sulforaphane] was run?
A: 13233 relative units of luciferase fluorescence

Q: What does the source list for Lipopolysaccharide [LPS]?
A: IL-6 induction relative to PM and DMSO ([2]; LPS 10 μg/mL versus PM + DMSO (Table 2)): over 40 times; IL-6 ([2]; Table 2, LPS 10 μg/mL, 24 h): 3760 pg/mL; IL-6 % of PM + DMSO ([2]; Table 2, LPS 10 μg/mL, 24 h): 4482%; IL-6 ([2]; Table 3, LPS 10 μg/mL, 24 h): 6477 pg/mL; IL-6 % of PM + DMSO ([2]; Table 3, LPS 10 μg/mL): 10612%; IL-8 ([3]; 24 h): 406 pg/mL; IL-8 % of PM + DMSO ([3]; PM + DMSO = 100): 140%; IL-6 ([4]; 24 h): 19.6 pg/mL; IL-6 % of PM + DMSO ([4]; PM + DMSO = 100): 45%
